Experimental data: article PMC12457209, “Jianpi‐Huogu Prescription Repairs Nontraumatic Osteonecrosis of the Femoral Head by Inhibiting NAMPT/STK11/HMGCR/ACAT1 Axis‐Mediated Lipid Production” (Journal of Cellular and Molecular Medicine, 2025)

molecular target: T1, NMNAT1 (Nicotinamide Nucleotide Adenylyl Transferase 1) (Homo sapiens, UniProt Q9HAN9); experiment: SPR, Biacore T200, immobilised protein; type: binding; settings: PBS, 5% DMSO, 0.5% P20, pH 7.4; compound 1.56 to 50 μM
T1 construct: amine-coupled to CM5 chip
T1 sequence (Q9HAN9 whole entry): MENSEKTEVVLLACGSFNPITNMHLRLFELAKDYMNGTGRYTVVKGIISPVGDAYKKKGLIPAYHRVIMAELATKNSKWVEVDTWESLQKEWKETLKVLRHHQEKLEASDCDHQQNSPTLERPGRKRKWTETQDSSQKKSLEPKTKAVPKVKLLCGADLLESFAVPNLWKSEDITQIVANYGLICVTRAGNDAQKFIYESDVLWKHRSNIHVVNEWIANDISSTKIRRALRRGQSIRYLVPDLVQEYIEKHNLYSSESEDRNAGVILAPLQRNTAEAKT

Row | Structure (SMILES) | SPR, Biacore T200, immobilised protein
1 | CCC/C=C1\OC(=O)C2=C1CC[C@@H](O)[C@H]2O [senkyunolide H] | SPR analysis confirmed direct and specific binding of these compounds to NMNAT1
2 | Nc1nc2c(ncn2[C@@H]2O[C@H](CO)[C@@H](O)[C@H]2O)c(=O)[nH]1 [guanosine] | SPR analysis confirmed direct and specific binding of these compounds to NMNAT1
3 | COc1cc(/C=C/C(=O)O)ccc1O [ferulic acid] | SPR analysis confirmed direct and specific binding of these compounds to NMNAT1
4 | COc1cc(-c2cc(=O)c3c(O)c(O)c(OC)cc3o2)ccc1O [5,6,4′‐trihydroxy‐7,3′‐dimethoxyflavone] | SPR analysis confirmed direct and specific binding of these compounds to NMNAT1
